Measured values: US12727600B2, “Staurosporine⋅emamectin benzoate suspending agent and preparation method and application thereof” (PLANT PROTECTION RESEARCH INSTITUTE OF GUANGDONG ACADEMY OF …, priority 2020, dated 2026)
Read-outs that look alike come from different tables or passages of the source.

Test system: second instar larvae of Spodoptera exigua
Assay: Indoor toxicity by Potter spray method; co-toxicity coefficient method of Sun Y. P.
Format: in vivo
Conditions: median lethal concentration
Protocol: The method for determining the indoor toxicity of the pesticides involved in the present invention to the second instar larvae of Spodoptera exigua is as follows:
The test method is the Potter spray method: a Potter spray tower is used to spray the vegetable leaves on both sides with 1 mL of the amount of the pesticides treating the leaf on each side, and the sedimentation is performed for 30 seconds. There are 3 replicates for each treatment for 30 larvae (2nd instar larvae of Spodoptera exigua), and a treatment with the clean water is used as the control. The petri dish after sprayed is placed in a constant-temperature incubator (temperature being 25° C., relative humidity being 85%). The death of the testing pests is investigated and recorded after treatment for 24, 48, and 72 hours. During the treatment, the petri dish is kept moist, and fresh Cantonese cabbage leaves are added timely as pest's food.
The formula (1) is used to calculate the mortality of pests, the Abbott formula is used to calculate the corrected mortality, and EXCEL is used to analyze the virulence regression results. Formula (2) is the calculation formula of Abbott. Mortality (%)=Number of dead insects/Number of testing worms before experiment*100 (1) […]

Row | Compound | LC50 (Spodoptera exigua, mass ratio Staurosporine:Emamectin benzoate, read-out: LC50) | LC50
1 | CN[C@@H]1C[C@H]2O[C@@](C)([C@@H]1OC)n1c3ccccc3c3c4c(c5c6ccccc6n2c5c31)C(=O)NC4 [10:0, Staurosporine] | 40.3 µg/mL | 
2 | Emamectin benzoate [0:10] |  | 0.14 µg/mL
